Measured values as given in patent EP1021178B1, “SELENOPHENE ANTI-TUMOR AGENTS” (Purdue Research Foundation, priority 1996, dated 1997).

Assays:
Assay in all cases: NCI human tumor cell panel
UO-31 = details: UO-31, read-out: Log10 LC50 (converted)
NCI-H23 = details: for CC50: NCI-H23, read-out: Log10 LC50 (converted); for IC (TGI): NCI-H23, read-out: Log10 TGI
OVCAR-8 = details: OVCAR-8, read-out: Log10 LC50 (converted)
MALME-3M = details: for CC50: read-out: Log10 LC50 (converted)
SNB-75 = details: SNB-75, read-out: Log10 LC50 (converted)
SK-MEL-5 = details: SK-MEL-5, read-out: Log10 LC50 (converted)
TK-10 = details: for CC50: TK-10, read-out: Log10 LC50 (converted)
SW-620 = type: cell-based; details: SW-620, read-out: Log10 LC50 (converted)
Text: (§1) Considering the diversity of tumors in terms of cell type, morphology, growth rate and other cellular characteristics, the U.S. National Cancer Institute (NCI) has developed a "disease-oriented" approach to antitumor activity screening (M.R. Boyd, in "Principle of Practice of Oncology" J.T. Devita, S. Hellman, S.A. Rosenberg (Eds.) Vol. 3, PPO Update, No. 10, 1989). This in vitro prescreening system is based on the measurement of antitumor cytotoxicity against human tumor cell line panels consisting of approximately 60 cell lines of major human tumors (including leukemia and slower growing tumor cells such as lung, colon, breast, skin, kidney, etc.). The most important advantage of the new in vitro screening panels is the opportunity to identify compounds that are selectively more cytotoxic to cells of slowly growing solid tumors than to rapidly growing leukemia cells.
(§2) The cytotoxic activity of the present selenophene compounds have been measured utilizing two different assays or screens. The first screen measures the cytotoxicity against a panel of sixty different human tumor cell lines. This assay provides data regarding the general cytotoxicity of an individual compound. In particular this type of assay is useful in identifying compounds which have enhanced cytotoxic activity against slow growing tumors as compared to faster growing tumor cells such as leukemia tumor cell lines. The identification of such compounds is critical since previously identified antitumor agents have low cytotoxic activity against slower growing tumors. […] The specificity of a cytotoxic compound for tumor cell lines relative to normal cells is an important characteristic of an effective antitumor agent.
(§3) Antitumor cytotoxicity data generated from the National Cancer Institute human tumor cell panels can also be expressed in a graphic pattern (mean graph) to display differential cell growth inhibition (K.D. Paull, R.H. Shoemaker, L. Hodes, A. Monks, D.A. Scudiero, L. Rubinstein, J. Plowman and M.R. Boyd, J. Nail. Cancer Inst., 81, 1088, 1989.) In the mean graph, the arithmetic mean of the logarithm of the GI50 (50% growth inhibition), TGI (total growth inhibition) or LC50 (50% lethal concentration) values is used as an anchor point. […] The length of a bar is indicative of differential cytotoxicity against a specific type of tumor cells or tumor panels.
(§4) The antitumor cytotoxicity of the selenophene compounds tested in those in vitro assays was measured by a microculture assay using either a 3-(4,5-dimethylthiazol-2-yl)-2,5-diphenyltetrazolium bromide (MTT) or sulforhodamine B (SRB) based assay. [M.R. Boyd in "Principles and Practices of Oncology," V.T. DeVita, Jr.]. The experiments were conducted at Purdue University in 96-well microtiter plates and the cytotoxic effects of the selenophene compounds on those cells were measured by cell count using a Coulter Z.F. counter (Hialeah, FL). The results are expressed as GI50, the concentration of drug at which cell numbers are reduced to 50% of control cell culture [T.C.K. Chan, C.J. Chang, N.M. Koonchanok and R.L. Geahlen, Biochem. Biophys. Res. Commun., 193, 1152, (1993); S. Hellman and S.A. Rosenberg (Eds.), Vol. 3, PPO Updates, Number 10, (1989).]
(§5) This in vitro microculture assay has an advantage over in vivo assays in that results are obtained within a week as opposed to several months. The MTT assay is based on the production of a dark blue formazan product by dehydrogenase in the mitochondria of live tumor cells after exposure to drug for 6 days [M.C. Alley, D.A. Scudiero, A. Monks, M.L. Hursey, M.J. Czerwinski, D.L. Fine, B.J. Abbott, J.G. Mayo, R.H. Shoemaker and M.R. Boyd, Cancer Res., 48, 589, 1988]. Thus, only live cells are stained and can be measured at 570 nm. […]

HOP-62 = type: cell-based; details: HOP-62, read-out: Log10 LC50 (converted)
Text: as §1, §2, §3, §4, §5

SF-539 = type: cell-based; details: SF-539, read-out: Log10 LC50 (converted)
Text: as §1, §2, §3, §4, §5

ACHN = type: cell-based; details: read-out: Log10 LC50 (converted)
Text: as §1, §2, §3, §4, §5

PC-3 = type: cell-based; details: PC-3, read-out: Log10 LC50 (converted)
Text: as §1, §2, §3, §4, §5

MOLT-4 = type: cell-based; details: MOLT-4, read-out: Log10 LC50 (converted)
Text: as §1, §2, §3, §4, §5

A498 = type: cell-based; details: A498, read-out: Log10 LC50 (converted)
Text: as §1, §2, §3, §4, §5

NCI-H522 = type: cell-based; details: NCI-H522, read-out: Log10 LC50 (converted)
Text: as §1, §2, §3, §4, §5

A549/ATCC = type: cell-based; details: A549, read-out: Log10 LC50 (converted)
Text: as §1, §2, §3, §4, §5

MDA-MB-435 = details: MDA-MB-435, read-out: Log10 LC50 (converted)
HT29 = details: HT-29, read-out: Log10 LC50 (converted)
EKVX = details: read-out: Log10 LC50 (converted)
SF-295 = details: for CC50: SF-295, read-out: Log10 LC50 (converted)

Row | SMILES | CC50 (UO-31) | CC50 (NCI-H23) | CC50 (OVCAR-8) | CC50 (MALME-3M) | CC50 (SNB-75) | CC50 (SK-MEL-5) | CC50 (TK-10) | CC50 (SW-620) | CC50 (HOP-62) | CC50 (SF-539) | CC50 (ACHN) | CC50 (PC-3) | CC50 (MOLT-4) | CC50 (A498) | CC50 (NCI-H522) | CC50 (A549/ATCC) | CC50 (MDA-MB-435) | CC50 (HT29) | CC50 (EKVX) | CC50 (SF-295) | further results
1 | O=Cc1ccc(-c2ccc(-c3ccc(C=O)[se]3)s2)s1 | > 100 µM | > 100 µM | > 100 µM | > 100 µM | > 100 µM | > 100 µM | 61.7 µM | > 100 µM | > 100 µM | > 100 µM | > 100 µM | > 100 µM | > 100 µM | 331 nM | > 100 µM | > 100 µM | > 100 µM | > 100 µM | > 100 µM | > 100 µM | IC (TGI) (NCI-H23): > 100 µM; IC (TGI) (SF-295; SF-295, read-out: Log10 TGI): > 100 µM
2 | OCc1ccc(-c2ccc(-c3ccc(CO)[se]3)s2)s1 | > 100 µM | > 100 µM | > 100 µM | > 100 µM | > 100 µM | > 100 µM | 64.6 µM | > 100 µM | 85.1 µM | 83.2 µM | > 100 µM | > 100 µM | > 100 µM | 72.4 nM | > 100 µM | > 100 µM | > 100 µM | > 100 µM | > 100 µM | > 100 µM | –
3 | OCc1ccc(-c2ccc(-c3ccc[se]3)s2)[se]1 | > 100 µM | 91.2 µM | > 100 µM | > 100 µM | > 100 µM | > 100 µM | 72.4 µM | > 100 µM | > 100 µM | > 100 µM | > 100 µM | > 100 µM | > 100 µM | 302 nM | 55 µM | > 100 µM | > 100 µM | > 100 µM | > 100 µM | > 100 µM | IC (TGI) (MALME-3M; read-out: Log10 TGI): > 100 µM
4 | OCc1ccc(-c2ccc(-c3ccc[se]3)[se]2)[se]1 | > 100 µM | 70.8 µM | > 100 µM | 50.1 µM | > 100 µM | 29.5 µM | > 100 µM | 35.5 µM | 44.7 µM | 51.3 µM | – | 36.3 µM | > 100 µM | 692 nM | 23.4 µM | 46.8 µM | – | 58.9 µM | 42.7 µM | 72.4 µM | IC (TGI) (NCI-H23): 30.9 µM
5 | OCc1ccc(-c2ccc(-c3ccc(CO)[se]3)[se]2)[se]1 | 38.9 µM | 95.5 µM | 72.4 µM | 56.2 µM | > 100 µM | 6.31 µM | 15.8 µM | 9.55 µM | 57.5 µM | 95.5 µM | > 100 µM | 35.5 µM | > 100 µM | 7240 nM | 7.08 µM | 53.7 µM | 49 µM | 66.1 µM | > 100 µM | 70.8 µM | IC (TGI) (TK-10; TK-10, read-out: Log10 TGI): 0.661 µM
